Numbers after ± are expanded uncertainties.
Assay: xn = mol fraction of the nth substance listed
Conditions: Liquid, Vibrating tube method

`CCCCCCCCCC` [decane] + CCCCCCCC showed a mass density (343.11 K, 1000 kPa, x2 = 0.0616) of 691.23 ± 0.41 kg/m3, a mass density (343.11 K, 2000 kPa, x2 = 0.0616) of 692.25 ± 0.42 kg/m3 and a mass density (343.11 K, 3000 kPa, x2 = 0.0616) of 693.27 ± 0.42 kg/m3. It also gave a mass density (343.11 K, 4000 kPa, x2 = 0.0616) of 694.28 ± 0.43 kg/m3, a mass density (343.11 K, 5000 kPa, x2 = 0.0616) of 695.27 ± 0.43 kg/m3 and a mass density (343.11 K, 6000 kPa, x2 = 0.0616) of 696.28 ± 0.44 kg/m3. For the same compound, the mass density (343.11 K, 7000 kPa, x2 = 0.0616) was 697.25 ± 0.44 kg/m3, the mass density (343.11 K, 8000 kPa, x2 = 0.0616) was 698.24 ± 0.45 kg/m3 and the mass density (343.11 K, 9000 kPa, x2 = 0.0616) was 699.21 ± 0.45 kg/m3. The mass density (343.11 K, 10000 kPa, x2 = 0.0616) was 700.15 ± 0.46 kg/m3, the mass density (343.11 K, 10990 kPa, x2 = 0.0616) was 701.09 ± 0.46 kg/m3 and the mass density (343.11 K, 12000 kPa, x2 = 0.0616) was 702.04 ± 0.47 kg/m3. The mass density (343.11 K, 13000 kPa, x2 = 0.0616) was 702.94 ± 0.47 kg/m3, the mass density (343.11 K, 14000 kPa, x2 = 0.0616) was 703.83 ± 0.48 kg/m3 and the mass density (343.11 K, 15000 kPa, x2 = 0.0616) was 704.71 ± 0.49 kg/m3. The mass density (343.11 K, 16000 kPa, x2 = 0.0616) was 705.59 ± 0.49 kg/m3, the mass density (343.11 K, 17000 kPa, x2 = 0.0616) was 706.44 ± 0.5 kg/m3 and the mass density (343.11 K, 18000 kPa, x2 = 0.0616) was 707.29 ± 0.5 kg/m3. It also gave a mass density (343.11 K, 19000 kPa, x2 = 0.0616) of 708.13 ± 0.51 kg/m3, a mass density (343.11 K, 20000 kPa, x2 = 0.0616) of 708.97 ± 0.52 kg/m3 and a mass density (343.11 K, 21000 kPa, x2 = 0.0616) of 709.77 ± 0.52 kg/m3. The mass density (343.11 K, 22000 kPa, x2 = 0.0616) was 710.54 ± 0.53 kg/m3, the mass density (343.11 K, 23000 kPa, x2 = 0.0616) was 711.34 ± 0.53 kg/m3 and the mass density (343.11 K, 24000 kPa, x2 = 0.0616) was 712.11 ± 0.54 kg/m3. For the same compound, the mass density (343.11 K, 25000 kPa, x2 = 0.0616) was 712.86 ± 0.55 kg/m3, the mass density (343.12 K, 1000 kPa, x2 = 0.2801) was 686 ± 0.42 kg/m3 and the mass density (343.12 K, 1000 kPa, x2 = 0.5314) was 678.98 ± 0.42 kg/m3. For the same compound, the mass density (343.12 K, 1000 kPa, x2 = 0.7736) was 671.23 ± 0.42 kg/m3, the mass density (343.12 K, 2000 kPa, x2 = 0.2801) was 686.96 ± 0.42 kg/m3 and the mass density (343.12 K, 2000 kPa, x2 = 0.5314) was 680.05 ± 0.42 kg/m3. The mass density (343.12 K, 2000 kPa, x2 = 0.7736) was 672.36 ± 0.43 kg/m3, the mass density (343.12 K, 3000 kPa, x2 = 0.2801) was 688 ± 0.42 kg/m3 and the mass density (343.12 K, 3000 kPa, x2 = 0.5314) was 681.13 ± 0.43 kg/m3. The mass density (343.12 K, 3000 kPa, x2 = 0.7736) was 673.44 ± 0.43 kg/m3, the mass density (343.12 K, 4000 kPa, x2 = 0.2801) was 689.01 ± 0.43 kg/m3 and the mass density (343.12 K, 4000 kPa, x2 = 0.5314) was 682.2 ± 0.43 kg/m3. It also gave a mass density (343.12 K, 4000 kPa, x2 = 0.7736) of 674.54 ± 0.44 kg/m3, a mass density (343.12 K, 5000 kPa, x2 = 0.2801) of 690.04 ± 0.43 kg/m3 and a mass density (343.12 K, 5000 kPa, x2 = 0.5314) of 683.26 ± 0.44 kg/m3. For the same compound, the mass density (343.12 K, 5000 kPa, x2 = 0.7736) was 675.64 ± 0.44 kg/m3, the mass density (343.12 K, 6000 kPa, x2 = 0.2801) was 691.09 ± 0.44 kg/m3 and the mass density (343.12 K, 6000 kPa, x2 = 0.5314) was 684.32 ± 0.44 kg/m3. It also gave a mass density (343.12 K, 6000 kPa, x2 = 0.7736) of 676.76 ± 0.45 kg/m3, a mass density (343.12 K, 7000 kPa, x2 = 0.2801) of 692.03 ± 0.44 kg/m3 and a mass density (343.12 K, 7000 kPa, x2 = 0.5314) of 685.36 ± 0.45 kg/m3. The mass density (343.12 K, 7000 kPa, x2 = 0.7736) was 677.83 ± 0.45 kg/m3, the mass density (343.12 K, 8000 kPa, x2 = 0.2801) was 693.02 ± 0.45 kg/m3 and the mass density (343.12 K, 8000 kPa, x2 = 0.5314) was 686.38 ± 0.45 kg/m3. It also gave a mass density (343.12 K, 8000 kPa, x2 = 0.7736) of 678.88 ± 0.46 kg/m3, a mass density (343.12 K, 9000 kPa, x2 = 0.2801) of 694 ± 0.45 kg/m3 and a mass density (343.12 K, 9000 kPa, x2 = 0.5314) of 687.39 ± 0.46 kg/m3. For the same compound, the mass density (343.12 K, 9000 kPa, x2 = 0.7736) was 679.92 ± 0.46 kg/m3, the mass density (343.12 K, 10000 kPa, x2 = 0.2801) was 694.95 ± 0.46 kg/m3 and the mass density (343.12 K, 10000 kPa, x2 = 0.5314) was 688.38 ± 0.46 kg/m3. The mass density (343.12 K, 10000 kPa, x2 = 0.7736) was 680.93 ± 0.47 kg/m3, the mass density (343.12 K, 10990 kPa, x2 = 0.2801) was 695.95 ± 0.47 kg/m3 and the mass density (343.12 K, 10990 kPa, x2 = 0.5314) was 689.37 ± 0.47 kg/m3. The mass density (343.12 K, 10990 kPa, x2 = 0.7736) was 681.98 ± 0.48 kg/m3, the mass density (343.12 K, 12000 kPa, x2 = 0.2801) was 696.9 ± 0.47 kg/m3 and the mass density (343.12 K, 12000 kPa, x2 = 0.5314) was 690.34 ± 0.48 kg/m3. For the same compound, the mass density (343.12 K, 12000 kPa, x2 = 0.7736) was 682.98 ± 0.48 kg/m3, the mass density (343.12 K, 13000 kPa, x2 = 0.2801) was 697.84 ± 0.48 kg/m3 and the mass density (343.12 K, 13000 kPa, x2 = 0.5314) was 691.29 ± 0.48 kg/m3. For the same compound, the mass density (343.12 K, 13000 kPa, x2 = 0.7736) was 683.94 ± 0.49 kg/m3, the mass density (343.12 K, 14000 kPa, x2 = 0.2801) was 698.78 ± 0.48 kg/m3 and the mass density (343.12 K, 14000 kPa, x2 = 0.5314) was 692.24 ± 0.49 kg/m3. The mass density (343.12 K, 14000 kPa, x2 = 0.7736) was 684.91 ± 0.49 kg/m3, the mass density (343.12 K, 15000 kPa, x2 = 0.2801) was 699.72 ± 0.49 kg/m3 and the mass density (343.12 K, 15000 kPa, x2 = 0.5314) was 693.17 ± 0.49 kg/m3. It also gave a mass density (343.12 K, 15000 kPa, x2 = 0.7736) of 685.89 ± 0.5 kg/m3, a mass density (343.12 K, 16000 kPa, x2 = 0.2801) of 700.6 ± 0.5 kg/m3 and a mass density (343.12 K, 16000 kPa, x2 = 0.5314) of 694.09 ± 0.5 kg/m3. For the same compound, the mass density (343.12 K, 16000 kPa, x2 = 0.7736) was 686.84 ± 0.51 kg/m3, the mass density (343.12 K, 17000 kPa, x2 = 0.2801) was 701.51 ± 0.5 kg/m3 and the mass density (343.12 K, 17000 kPa, x2 = 0.5314) was 695 ± 0.51 kg/m3. For the same compound, the mass density (343.12 K, 17000 kPa, x2 = 0.7736) was 687.8 ± 0.51 kg/m3, the mass density (343.12 K, 18000 kPa, x2 = 0.2801) was 702.35 ± 0.51 kg/m3 and the mass density (343.12 K, 18000 kPa, x2 = 0.5314) was 695.89 ± 0.51 kg/m3. For the same compound, the mass density (343.12 K, 18000 kPa, x2 = 0.7736) was 688.72 ± 0.52 kg/m3, the mass density (343.12 K, 19000 kPa, x2 = 0.2801) was 703.17 ± 0.51 kg/m3 and the mass density (343.12 K, 19000 kPa, x2 = 0.5314) was 696.76 ± 0.52 kg/m3. For the same compound, the mass density (343.12 K, 19000 kPa, x2 = 0.7736) was 689.61 ± 0.53 kg/m3, the mass density (343.12 K, 20000 kPa, x2 = 0.2801) was 704.02 ± 0.52 kg/m3 and the mass density (343.12 K, 20000 kPa, x2 = 0.5314) was 697.62 ± 0.53 kg/m3. The mass density (343.12 K, 20000 kPa, x2 = 0.7736) was 690.48 ± 0.54 kg/m3, the mass density (343.12 K, 21000 kPa, x2 = 0.2801) was 704.83 ± 0.53 kg/m3 and the mass density (343.12 K, 21000 kPa, x2 = 0.5314) was 698.47 ± 0.53 kg/m3. It also gave a mass density (343.12 K, 21000 kPa, x2 = 0.7736) of 691.35 ± 0.54 kg/m3, a mass density (343.12 K, 22000 kPa, x2 = 0.2801) of 705.63 ± 0.53 kg/m3 and a mass density (343.12 K, 22000 kPa, x2 = 0.5314) of 699.29 ± 0.54 kg/m3. The mass density (343.12 K, 22000 kPa, x2 = 0.7736) was 692.2 ± 0.55 kg/m3, the mass density (343.12 K, 23000 kPa, x2 = 0.2801) was 706.41 ± 0.54 kg/m3 and the mass density (343.12 K, 23000 kPa, x2 = 0.5314) was 700.11 ± 0.55 kg/m3.
